Measured values as given in patent US9034921B2, “Diphenylmethane derivatives as SGLT2 inhibitors” (GREEN CROSS CORPORATION, priority 2011, dated 2015).
Where a name gives a salt, the structure may show the parent alone.

molecular target: human SGLT2 (Homo sapiens (Human), UniProt P31639); assay: Inhibitory effects on human SGLT2 activities (14C-AMG uptake, sodium-dependent glucose transport assay); type: cell-based; settings: CHO cells stably expressing hSGLT2, 37° C., 2 h, single determinations
Sequence (P31639 whole entry): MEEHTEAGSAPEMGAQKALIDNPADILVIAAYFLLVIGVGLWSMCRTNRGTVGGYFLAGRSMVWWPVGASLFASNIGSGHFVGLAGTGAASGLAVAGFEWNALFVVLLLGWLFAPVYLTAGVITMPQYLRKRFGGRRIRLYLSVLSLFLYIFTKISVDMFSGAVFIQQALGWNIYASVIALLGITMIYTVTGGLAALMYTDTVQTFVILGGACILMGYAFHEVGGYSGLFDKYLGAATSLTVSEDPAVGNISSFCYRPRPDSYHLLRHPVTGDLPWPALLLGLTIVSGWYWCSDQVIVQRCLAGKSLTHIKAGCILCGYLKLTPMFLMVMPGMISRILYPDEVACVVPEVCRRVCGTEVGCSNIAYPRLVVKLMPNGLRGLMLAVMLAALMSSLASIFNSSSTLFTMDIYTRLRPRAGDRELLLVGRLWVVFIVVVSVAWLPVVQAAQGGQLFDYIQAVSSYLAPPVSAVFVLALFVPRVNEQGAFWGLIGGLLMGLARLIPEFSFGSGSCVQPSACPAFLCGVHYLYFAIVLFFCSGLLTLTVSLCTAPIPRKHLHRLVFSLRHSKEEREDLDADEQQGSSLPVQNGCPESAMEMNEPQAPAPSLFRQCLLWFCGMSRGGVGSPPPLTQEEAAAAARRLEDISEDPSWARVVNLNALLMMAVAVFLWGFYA
Description: Test 1: Cloning and Cell Line Construction for Human SGLT2
Human SGLT2 (hSGLT2) gene was amplified by PCR from cDNA-Human Adult Normal Tissue Kidney (Invitrogen). The hSGLT2 sequence was cloned into pcDNA3.1(+) for mammalian expression and stably transfected into chinese hamster ovary (CHO) cells. SGLT2-expressing clones were selected based on resistance to G418 antibiotic (Geneticin) and activity in the ^14C-α-methyl-D-glucopyranoside (^14C-AMG) uptake assay.
Test 2: Inhibitory Effects on Human SGLT2 Activities
For sodium-dependent glucose transport assay, cells expressing hSGLT2 were seeded into a 96-well culture plate at a density of 5×10^4 cells/well in RPMI medium 1640 containing 10% fetal bovine serum. The cells were used 1 day after plating. They were incubated in pretreatment buffer (10 mM HEPES, 5 mM Tris, 140 mM choline chloride, 2 mM KCl, 1 mM CaCl2, and 1 mM MgCl2, pH 7.4) at 37° C. for 10 min. They were then incubated in uptake buffer (10 mM HEPES, 5 mM Tris, 140 mM NaCl, 2 mM KCl, 1 mM CaCl2, 1 mM MgCl2, and 1 mM ^14C-nonlabeled AMG pH 7.4) containing ^14C-labeled AMG (8 μM) and the inventive compound or dimethyl sulfoxide (DMSO) vehicle at 37° C. for 2 h. Cells were washed twice with washing buffer (pretreatment buffer containing 10 mM AMG at room temperature) and then the radioactivity was measured using a liquid scintillation counter. IC50 was determined by nonlinear regression analysis using GraphPad PRISM [Katsuno, K. et al. J. Pharmacol. Exp. Ther. 2007, 320, 323-330; Han, S. et al. Diabetes, 2008, 57, 1723-1729].

Compound	IC50
OC[C@H]1O[C@@H](c2cc(Cc3ccc(C4CC4)cc3)c(Cl)c3c2CCC3)[C@H](O)[C@@H](O)[C@@H]1O [Example E118, (2S,3R,4R,5S,6R)-2-(7-Chloro-6-(4-cyclopropylbenzyl)-2,3-dihydro-1H-inden-4-yl)-6-(hydroxymethyl)tetrahydro-2H-pyran-3,4,5-triol]	0.678 nM
CCc1ccc(Cc2cc([C@@H]3O[C@H](CO)[C@@H](O)[C@H](O)[C@H]3O)c3c(c2Br)CCC3)cc1 [Example E004, (2S,3R,4R,5S,6R)-2-(7-Bromo-6-(4-ethylbenzyl)-2,3-dihydro-1H-inden-4-yl)-6-(hydroxymethyl)tetrahydro-2H-pyran-3,4,5-triol]	0.661 nM
CCc1ccc(Cc2cc([C@@H]3O[C@H](CO)[C@@H](O)[C@H](O)[C@H]3O)c3c(c2Cl)OCC3C)cc1 (stereo partly drawn) [Example E153, (2S,3R,4R,5S,6R)-2-(7-Chloro-6-(4-ethylbenzyl)-3-methyl-2,3-dihydrobenzofuran-4-yl)-6-(hydroxymethyl)tetrahydro-2H-pyran-3,4,5-triol]	0.721 nM
CCOc1ccc(Cc2cc([C@@H]3O[C@H](CO)[C@@H](O)[C@H](O)[C@H]3O)cc(-c3ccsc3)c2C)cc1 [Example E089, (2S,3R,4R,5S,6R)-2-(3-(4-Ethoxybenzyl)-4-methyl-5-(thiophen-3-yl)phenyl)-6-(hydroxymethyl)-tetrahydro-2H-pyran-3,4,5-triol]	2.55 nM
OC[C@H]1O[C@@H](c2cc(Cc3ccc4c(c3)OCCO4)c(C(F)F)c3c2CCC3)[C@H](O)[C@@H](O)[C@@H]1O [Example E108, (2S,3R,4R,5S,6R)-2-(7-(Difluoromethyl)-6-((2,3-dihydrobenzo[b][1,4]dioxin-6-yl)methyl)-2,3-dihydro-1H-inden-4-yl)-6-(hydroxymethyl)tetrahydro-2H-pyran-3,4,5-triol]	1.26 nM
OC[C@H]1O[C@@H](c2ccc(Cl)c(Cc3ccc4c(c3)CCCS4)c2)[C@H](O)[C@@H](O)[C@@H]1O [Example E061, (2S,3R,4R,5S,6R)-2-(4-Chloro-3-(thiochroman-6-ylmethyl)phenyl)-6-(hydroxymethyl)-tetrahydro-2H-pyran-3,4,5-triol]	3.35 nM
CC1Cc2cc(Cc3cc([C@@H]4O[C@H](CO)[C@@H](O)[C@H](O)[C@H]4O)ccc3Cl)ccc2O1 (stereo partly drawn) [Example E065, (2S,3R,4R,5S,6R)-2-(4-Chloro-3-((2-methyl-2,3-dihydrobenzofuran-5-yl)methyl)phenyl)-6-(hydroxymethyl)-tetrahydro-2H-pyran-3,4,5-triol]	7.62 nM
COc1ccc(Cc2cc([C@@H]3O[C@H](CO)[C@@H](O)[C@H](O)[C@H]3O)c3occ(OC)c3c2Cl)cc1 [Example E202, (2S,3R,4R,5S,6R)-2-(4-Chloro-3-methoxy-5-(4-methoxybenzyl)benzofuran-7-yl)-6-(hydroxymethyl)tetrahydro-2H-pyran-3,4,5-triol]	42.3 nM
CCCc1ccc(Cc2cc([C@@H]3O[C@H](CO)[C@@H](O)[C@H](O)[C@H]3O)c3c(c2Cl)CC(C)O3)cc1 (stereo partly drawn) [Example E134, (2S,3R,4R,5S,6R)-2-(4-Chloro-2-methyl-5-(4-propylbenzyl)-2,3-dihydrobenzofuran-7-yl)-6-(hydroxymethyl)tetrahydro-2H-pyran-3,4,5-triol]	0.885 nM
CCc1ccc(Cc2cc([C@@H]3O[C@H](CO)[C@@H](O)[C@H](O)[C@H]3O)c3c(c2C(F)F)CCC3)cc1 [Example E239, (2S,3R,4R,5S,6R)-2-(7-(Difluoromethyl)-6-(4-ethylbenzyl)-2,3-dihydro-1H-inden-4-yl)-6-(hydroxymethyl)tetrahydro-2H-pyran-3,4,5-triol]	0.718 nM
OC[C@H]1O[C@@H](c2cc(Cc3ccc4c(c3)OCCO4)c(Cl)c3c2OCC3)[C@H](O)[C@@H](O)[C@@H]1O [Example E191, (2S,3R,4R,5S,6R)-2-(4-Chloro-5-((2,3-dihydrobenzo[b][1,4]dioxin-6-yl)methyl)-2,3-dihydrobenzofuran-7-yl)-6-(hydroxymethyl)tetrahydro-2H-pyran-3,4,5-triol]	1.57 nM
CCOc1ccc(Cc2cc([C@@H]3O[C@H]([S+](C)[O-])[C@@H](O)[C@H](O)[C@H]3O)c3c(c2Cl)CC(C)O3)cc1 (stereo partly drawn) [Example E147, (2S,3R,4R,5S,6R)-2-(4-Chloro-5-(4-ethoxybenzyl)-2-methyl-2,3-dihydrobenzofuran-7-yl)-6-((S)-methylsulfinyl)tetrahydro-2H-pyran-3,4,5-triol]	5.4 nM
CCn1ncc2cc(Cc3cc([C@@H]4O[C@H](CO)[C@@H](O)[C@H](O)[C@H]4O)ccc3Cl)ccc21 [Example E037, (2S,3R,4R,5S,6R)-2-(4-Chloro-3-((1-ethyl-1H-indazol-5-yl)methyl)phenyl)-6-(hydroxymethyl)tetrahydro-2H-pyran-3,4,5-triol]	1.58 nM
C=CCOc1cc(Cl)c(Cc2ccc(OC)cc2)cc1[C@@H]1O[C@H](OC)[C@@H](O)[C@H](O)[C@H]1O [Example E115, (2S,3R,4R,5S,6S)-2-(2-(Allyloxy)-4-chloro-5-(4-methoxybenzyl)phenyl)-6-methoxytetrahydro-2H-pyran-3,4,5-triol]	7.06 nM
Cc1ccc([C@@H]2O[C@H](CO)[C@@H](O)[C@H](O)[C@H]2O)cc1Cc1ccc2c(c1)OCCO2 [Example E054, (2S,3R,4R,5S,6R)-2-(3-((2,3-Dihydrobenzo[b][1,4]dioxin-6-yl)methyl)-4-methylphenyl)-6-(hydroxymethyl)-tetrahydro-2H-pyran-3,4,5-triol]	2.02 nM
CCOc1ccc(Cc2cc([C@@H]3O[C@H](S(C)(=O)=O)[C@@H](O)[C@H](O)[C@H]3O)c3c(c2Cl)CC(C)O3)cc1 (stereo partly drawn) [Example E146, (2S,3R,4R,5S,6R)-2-(4-Chloro-5-(4-ethoxybenzyl)-2-methyl-2,3-dihydrobenzofuran-7-yl)-6-(methylsulfonyl)tetrahydro-2H-pyran-3,4,5-triol]	3.45 nM

The remaining lines, values ahead:

IC50	Compound
3.56 nM	COc1ccc(Cc2cc([C@@H]3O[C@H](CO)[C@@H](O)[C@H](O)[C@H]3O)c3c(c2Cl)C(O)CO3)cc1 (stereo partly drawn) [Example E196, (2S,3R,4R,5S,6R)-2-(4-Chloro-3-hydroxy-5-(4-methoxybenzyl)-2,3-dihydrobenzofuran-7-yl)-6-(hydroxymethyl)tetrahydro-2H-pyran-3,4,5-triol]
2.09 nM	COc1ccc(Cc2cc([C@@H]3O[C@H](CO)[C@@H](O)[C@H](O)[C@H]3O)c3c(c2Cl)OCCC3)cc1 [Example E156, (2S,3R,4R,5S,6R)-2-(8-Chloro-7-(4-methoxybenzyl)chroman-5-yl)-6-(hydroxymethyl)tetrahydro-2H-pyran-3,4,5-triol]
1.96 nM	CC(C)Oc1ccc(Cc2cc([C@@H]3O[C@H](CO)[C@@H](O)[C@H](O)[C@H]3O)c3c(c2Cl)OCC3)cc1 [Example E205, (2S,3R,4R,5S,6R)-2-(7-Chloro-6-(4-isopropoxybenzyl)-2,3-dihydrobenzofuran-4-yl)-6-(hydroxymethyl)tetrahydro-2H-pyran-3,4,5-triol]
1.99 nM	CCOc1ccc(Cc2cc([C@@H]3O[C@H](CO)[C@@H](O)[C@H](O)[C@H]3O)c3c(c2Cl)C(C)CO3)cc1 (stereo partly drawn) [Example E222, (2S,3R,4R,5S,6R)-2-(4-Chloro-5-(4-ethoxybenzyl)-3-methyl-2,3-dihydrobenzofuran-7-yl)-6-(hydroxymethyl)-tetrahydro-2H-pyran-3,4,5-triol]
2.03 nM	CC(C)(O)c1ccc(Cc2cc([C@@H]3O[C@H](CO)[C@@H](O)[C@H](O)[C@H]3O)c3c(c2Cl)OCC3)cc1 [Example E175, (2S,3R,4R,5S,6R)-2-(7-Chloro-6-(4-(2-hydroxypropan-2-yl)benzyl)-2,3-dihydrobenzofuran-4-yl)-6-(hydroxymethyl)tetrahydro-2H-pyran-3,4,5-triol]
1.46 nM	CC(F)c1ccc(Cc2cc([C@@H]3O[C@H](CO)[C@@H](O)[C@H](O)[C@H]3O)c3c(c2Cl)OCC3)cc1 (stereo partly drawn) [Example E170, (2S,3R,4R,5S,6R)-2-(7-Chloro-6-(4-(1-fluoroethyl)benzyl)-2,3-dihydrobenzofuran-4-yl)-6-(hydroxymethyl)tetrahydro-2H-pyran-3,4,5-triol]
162 nM	CN(C)Cc1ccc(Cc2cc([C@@H]3O[C@H](CO)[C@@H](O)[C@H](O)[C@H]3O)c3c(c2Cl)OCC3)cc1 [Example E184, (2S,3R,4R,5S,6R)-2-(7-Chloro-6-(4-((dimethylamino)methyl)benzyl)-2,3-dihydrobenzofuran-4-yl)-6-(hydroxymethyl)tetrahydro-2H-pyran-3,4,5-triol trifluoro acetic acid salt]
0.463 nM	OC[C@H]1O[C@@H](c2cc(Cc3ccc(C4CC4)cc3)c(Cl)c3c2CCO3)[C@H](O)[C@@H](O)[C@@H]1O [Example E172, (2S,3R,4R,5S,6R)-2-(7-Chloro-6-(4-cyclopropylbenzyl)-2,3-dihydrobenzofuran-4-yl)-6-(hydroxymethyl)tetrahydro-2H-pyran-3,4,5-triol]
